In the NIST ThermoML archive (doi:10.1021/je060271a):
Where “and” joins values, the source holds several entries; their conditions need not be identical. Identical values can stand only once.

Details: 343.15 K, Liquid, Vibrating tube method

CCCCCCC(=O)OCC(COC(=O)CCCCCC)(COC(=O)CCCCCC)COC(=O)CCCCCC [pentaerythritol tetraheptanoate]
Details | mass density
4113.8 kPa | 943.7 kg/m3
4138.8 kPa | 943.6 kg/m3
4164 kPa | 943.7 kg/m3
4194.7 kPa | 943.7 kg/m3
4220.3 kPa | 943.6 kg/m3
4246.6 kPa | 943.7 kg/m3
4273.8 kPa | 943.8 kg/m3
4305 kPa | 943.9 kg/m3
4331.3 kPa | 943.9 kg/m3
4358.7 kPa | 944 kg/m3
4390.2 kPa | 943.8 kg/m3
4413.2 kPa | 943.8 kg/m3
4545.2 kPa | 943.9 kg/m3
4545.5 kPa | 944.1 kg/m3
4546 kPa | 943.9 kg/m3
4546.2 kPa | 944 kg/m3
4546.5 kPa | 944 kg/m3
4547.2 kPa | 944 kg/m3
4547.4 kPa | 944.1 kg/m3
4547.6 kPa | 944 kg/m3
4547.8 kPa | 944.1 kg/m3
4547.9 kPa | 944.1 kg/m3
4548.3 kPa | 944 kg/m3 and 944.1 kg/m3
4548.4 kPa | 944 kg/m3 and 943.9 kg/m3
4548.6 kPa | 944 kg/m3
4548.8 kPa | 944 kg/m3 and 944.1 kg/m3
4549 kPa | 943.9 kg/m3 and 944 kg/m3
4549.1 kPa | 944.2 kg/m3 and 944.1 kg/m3 and 944 kg/m3
4549.3 kPa | 944 kg/m3 and 944.1 kg/m3 and 943.9 kg/m3
4549.5 kPa | 944 kg/m3
4549.7 kPa | 944.1 kg/m3 and 944 kg/m3
4549.8 kPa | 944.1 kg/m3
4549.9 kPa | 944.1 kg/m3 and 944 kg/m3
4550 kPa | 944 kg/m3
4550.1 kPa | 944 kg/m3 and 944.1 kg/m3
4550.2 kPa | 944.1 kg/m3 and 944 kg/m3 and 943.9 kg/m3
4550.4 kPa | 944 kg/m3
4550.5 kPa | 944 kg/m3
4550.7 kPa | 944.1 kg/m3
4550.9 kPa | 944 kg/m3 and 944.2 kg/m3
4551 kPa | 944 kg/m3 and 944.1 kg/m3
4551.2 kPa | 944.1 kg/m3 [middle of 4 runs]
4551.4 kPa | 944 kg/m3 and 944.1 kg/m3
4551.5 kPa | 944 kg/m3
4551.7 kPa | 944.1 kg/m3 and 944 kg/m3
4551.9 kPa | 944 kg/m3 and 944.1 kg/m3
4552.1 kPa | 944 kg/m3 and 944.1 kg/m3
4552.2 kPa | 944.1 kg/m3 and 944 kg/m3 and 944.2 kg/m3
4552.3 kPa | 944.1 kg/m3
4552.4 kPa | 944 kg/m3 and 944.1 kg/m3
4552.6 kPa | 944 kg/m3 and 944.1 kg/m3
4552.8 kPa | 944.1 kg/m3 and 943.9 kg/m3 and 944 kg/m3
4553 kPa | 944 kg/m3 and 943.9 kg/m3 and 944.1 kg/m3
4553.1 kPa | 944.1 kg/m3 [middle of 4 runs]
4553.3 kPa | 944 kg/m3 and 944.1 kg/m3
4553.5 kPa | 944.1 kg/m3 and 944 kg/m3
4553.7 kPa | 944 kg/m3 and 944.1 kg/m3
4553.8 kPa | 944 kg/m3 and 944.1 kg/m3
4554 kPa | 944 kg/m3 and 944.1 kg/m3
4554.2 kPa | 944.1 kg/m3 and 944 kg/m3
4554.3 kPa | 944 kg/m3
4554.5 kPa | 944.1 kg/m3 and 944 kg/m3
4554.7 kPa | 944.1 kg/m3 and 943.9 kg/m3
4554.9 kPa | 944.2 kg/m3 and 944 kg/m3 and 943.9 kg/m3
4555 kPa | 944 kg/m3 and 944.1 kg/m3
4555.2 kPa | 944 kg/m3 and 944.1 kg/m3
4555.4 kPa | 944.1 kg/m3 and 944 kg/m3 and 943.9 kg/m3
4555.5 kPa | 944.2 kg/m3 and 944 kg/m3 and 944.1 kg/m3
4555.7 kPa | 944 kg/m3
4555.9 kPa | 944 kg/m3 and 944.1 kg/m3
4556.1 kPa | 944 kg/m3
4556.2 kPa | 944 kg/m3 and 944.1 kg/m3
4557.6 kPa | 944 kg/m3
4559 kPa | 944.1 kg/m3
4559.2 kPa | 944 kg/m3 and 943.9 kg/m3
4559.3 kPa | 943.9 kg/m3
4559.7 kPa | 944.1 kg/m3 and 944.2 kg/m3
4559.9 kPa | 944.1 kg/m3
4560 kPa | 944.1 kg/m3
4560.9 kPa | 944.1 kg/m3
4564.5 kPa | 944 kg/m3
4567.8 kPa | 944 kg/m3
4571.1 kPa | 944.2 kg/m3
4574.9 kPa | 944 kg/m3
4578.4 kPa | 944.1 kg/m3
4581.7 kPa | 944 kg/m3
4584.6 kPa | 943.9 kg/m3
4588.4 kPa | 944 kg/m3
4591.7 kPa | 944.1 kg/m3
4595.2 kPa | 944.1 kg/m3
4598.3 kPa | 944.1 kg/m3
4602.3 kPa | 944.1 kg/m3
4605.4 kPa | 943.9 kg/m3
4608.7 kPa | 944.1 kg/m3
4612.7 kPa | 944.2 kg/m3
4616.3 kPa | 944 kg/m3
4619.4 kPa | 944.1 kg/m3
4622.7 kPa | 944.1 kg/m3
4626.7 kPa | 944.2 kg/m3
4630 kPa | 944 kg/m3
4633.1 kPa | 944.1 kg/m3
4637.3 kPa | 944.2 kg/m3
4640.7 kPa | 944.1 kg/m3
4644 kPa | 944.1 kg/m3
4647.3 kPa | 944.1 kg/m3
4651.3 kPa | 944 kg/m3
4654.6 kPa | 944.1 kg/m3
4658.4 kPa | 944 kg/m3
4662 kPa | 944.1 kg/m3
4665.5 kPa | 944.2 kg/m3
4669.3 kPa | 944.1 kg/m3
4672.9 kPa | 944.2 kg/m3
4676.2 kPa | 944.1 kg/m3
4680 kPa | 944.2 kg/m3
4683.3 kPa | 944.1 kg/m3
4687.3 kPa | 944.1 kg/m3
4690.8 kPa | 944.1 kg/m3
4693.9 kPa | 944.2 kg/m3
4698.2 kPa | 944.2 kg/m3
4701.7 kPa | 944.1 kg/m3
4705 kPa | 944.2 kg/m3
4708.9 kPa | 944.2 kg/m3
4712.2 kPa | 944.2 kg/m3
4715.9 kPa | 944.1 kg/m3
4719.3 kPa | 944.1 kg/m3
4723.7 kPa | 944.1 kg/m3
4726.4 kPa | 944.2 kg/m3
4730.1 kPa | 944.2 kg/m3
4733.2 kPa | 944.2 kg/m3
4737.5 kPa | 944.3 kg/m3
4741 kPa | 944.2 kg/m3
4744.3 kPa | 944.2 kg/m3
4747.7 kPa | 944.2 kg/m3
4752.2 kPa | 944 kg/m3
4755.3 kPa | 944.1 kg/m3
4759 kPa | 944.1 kg/m3
4763.1 kPa | 944.1 kg/m3
4766.6 kPa | 944.2 kg/m3
4770.2 kPa | 944.3 kg/m3
4774.2 kPa | 944.2 kg/m3
4777.7 kPa | 944.3 kg/m3
4781.6 kPa | 944.1 kg/m3
4785.1 kPa | 944.2 kg/m3
4788.7 kPa | 944.4 kg/m3
4792.9 kPa | 944.3 kg/m3
4796.7 kPa | 944.2 kg/m3
4800 kPa | 944.2 kg/m3
4804.5 kPa | 944.2 kg/m3
4807.9 kPa | 944.3 kg/m3
4811.2 kPa | 944.2 kg/m3
4815.9 kPa | 944.1 kg/m3
4819.4 kPa | 944.2 kg/m3
4823.2 kPa | 944.2 kg/m3
4826.8 kPa | 944.3 kg/m3
4831 kPa | 944.2 kg/m3
4834.6 kPa | 944.2 kg/m3
4838.2 kPa | 944.2 kg/m3
4842 kPa | 944.1 kg/m3
4846.4 kPa | 944.4 kg/m3
4849.8 kPa | 944.2 kg/m3
4853.5 kPa | 944.2 kg/m3
4857.8 kPa | 944.3 kg/m3
4861.9 kPa | 944.3 kg/m3
4865.4 kPa | 944.3 kg/m3
4869.2 kPa | 944.3 kg/m3
4872.8 kPa | 944.2 kg/m3
4877.3 kPa | 944.3 kg/m3
4881 kPa | 944.3 kg/m3
4884.8 kPa | 944.3 kg/m3
4889.1 kPa | 944.2 kg/m3
4892.9 kPa | 944.2 kg/m3
4896.6 kPa | 944.3 kg/m3
4901.2 kPa | 944.3 kg/m3
4905 kPa | 944.3 kg/m3
4908.5 kPa | 944.2 kg/m3
4913 kPa | 944.2 kg/m3
4916.8 kPa | 944.3 kg/m3
4920.4 kPa | 944.2 kg/m3
4924.1 kPa | 944.3 kg/m3
4928.6 kPa | 944.4 kg/m3
4932.2 kPa | 944.4 kg/m3
4936 kPa | 944.3 kg/m3
4940.7 kPa | 944.3 kg/m3
4944.5 kPa | 944.3 kg/m3
4948.5 kPa | 944.4 kg/m3
4952.3 kPa | 944.3 kg/m3
4956.8 kPa | 944.4 kg/m3
4960.4 kPa | 944.2 kg/m3
4964.6 kPa | 944.3 kg/m3
4968.4 kPa | 944.3 kg/m3
4972.4 kPa | 944.2 kg/m3
4977 kPa | 944.2 kg/m3
4980.7 kPa | 944.5 kg/m3
4985.5 kPa | 944.4 kg/m3
4989.3 kPa | 944.4 kg/m3
4993.1 kPa | 944.3 kg/m3
4996.9 kPa | 944.4 kg/m3
5001.4 kPa | 944.3 kg/m3
5005.4 kPa | 944.4 kg/m3
5009.1 kPa | 944.3 kg/m3
5014.1 kPa | 944.4 kg/m3
5018.1 kPa | 944.4 kg/m3
5022 kPa | 944.4 kg/m3
5027 kPa | 944.4 kg/m3
5030.1 kPa | 944.4 kg/m3
5035.7 kPa | 944.4 kg/m3
5043.5 kPa | 944.3 kg/m3
5047.3 kPa | 944.4 kg/m3
5051.4 kPa | 944.4 kg/m3
5054.7 kPa | 944.3 kg/m3
5058.5 kPa | 944.5 kg/m3
5065.1 kPa | 944.5 kg/m3
5069.1 kPa | 944.4 kg/m3
5072.9 kPa | 944.4 kg/m3
5077 kPa | 944.4 kg/m3
5080.4 kPa | 944.4 kg/m3
5085.2 kPa | 944.4 kg/m3
5089.2 kPa | 944.5 kg/m3
5093.4 kPa | 944.5 kg/m3
5098.2 kPa | 944.4 kg/m3
5102.2 kPa | 944.3 kg/m3
5105.8 kPa | 944.4 kg/m3
5109.6 kPa | 944.5 kg/m3
